From ChEMBL document CHEMBL5096221, “Discovery of a Highly Potent and Orally Bioavailable STAT3 Dual Phosphorylation Inhibitor for Pancreatic Cancer Treatment” (J Med Chem, 2022)
One block for each compound: values may come before it.

Key:
Cytochrome P450 3A4 = Cytochrome P450 3A4 (Homo sapiens, UniProt P08684); assay: Inhibition of CYP3A4 in human liver microsomes using testosterone as substrate in presence of NADPH by HPLC analysis; format: ADME, Microsome
[1] = Microsomal stability in human liver microsomes assessed as half life incubated upto 40 mins in presence of NADPH by LC-MS/MS analysis; format: ADME, Microsome
[2] = MRT (0 to last) in BALB/c mouse at 1 mg/kg,iv measured upto 24 hrs by LC-MS/MS analysis; format: ADME, organism-based; settings: in vivo, iv, 1 mg/kg, 24 h
[3] = Volume of distribution at steady state in BALB/c mouse at 1 mg/kg,iv measured upto 24 hrs by LC-MS/MS analysis; format: ADME, organism-based; settings: in vivo, iv, 1 mg/kg, 24 h
[4] = Oral bioavailability in BALB/c mouse at 10 mg/kg,po measured upto 24 hrs by LC-MS/MS analysis; format: ADME, organism-based; settings: in vivo
Cytochrome P450 1A2 = molecular target: T1, Cytochrome P450 1A2 (Homo sapiens, UniProt P05177); assay: Inhibition of CYP1A2 in human liver microsomes using phenacetin as substrate incubated for 30 mins in presence of NADPH by HPLC analysis; format: ADME, Microsome
T1 sequence (P05177 whole entry): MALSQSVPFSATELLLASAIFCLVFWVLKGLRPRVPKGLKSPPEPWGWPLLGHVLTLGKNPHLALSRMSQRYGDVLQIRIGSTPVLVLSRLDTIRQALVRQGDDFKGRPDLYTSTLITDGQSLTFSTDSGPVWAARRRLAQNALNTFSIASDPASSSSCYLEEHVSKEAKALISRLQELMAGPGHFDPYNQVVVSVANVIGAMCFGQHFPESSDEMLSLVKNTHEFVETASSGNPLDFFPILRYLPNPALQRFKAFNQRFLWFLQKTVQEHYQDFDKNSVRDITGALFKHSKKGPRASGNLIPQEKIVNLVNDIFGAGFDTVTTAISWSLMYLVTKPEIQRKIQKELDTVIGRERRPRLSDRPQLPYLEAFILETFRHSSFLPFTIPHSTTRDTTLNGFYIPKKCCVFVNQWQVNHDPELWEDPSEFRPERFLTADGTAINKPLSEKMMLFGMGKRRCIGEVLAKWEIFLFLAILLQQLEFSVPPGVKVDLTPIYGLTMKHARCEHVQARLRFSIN

[5] = AUC (0-infinity) in BALB/c mouse at 1 mg/kg,iv measured upto 24 hrs by LC-MS/MS analysis; format: ADME, organism-based; set-up: dose 1 mg/kg, time < 24 hrs, route iv; settings: in vivo
[6] = Microsomal stability in dog liver microsomes assessed as half life incubated upto 40 mins in presence of NADPH by LC-MS/MS analysis; format: ADME, Canis lupus familiaris, Microsome
[7] = Microsomal stability in human liver microsomes assessed as intrinsic clearance incubated upto 40 mins in presence of NADPH by LC-MS/MS analysis; format: ADME, Microsome; settings: read-out: CLH
[8] = AUC (0-24hrs) in BALB/c mouse at 10 mg/kg,po measured upto 24 hrs by LC-MS/MS analysis; format: ADME, organism-based; set-up: dose 10 mg/kg, time < 24 hrs, route po; settings: in vivo
[9] = Clearance at steady state in BALB/c mouse at 1 mg/kg,iv measured upto 24 hrs by LC-MS/MS analysis; format: ADME, organism-based; settings: in vivo, iv, 1 mg/kg, 24 h
Cytochrome P450 2C9 = Cytochrome P450 2C9 (Homo sapiens, UniProt P11712); assay: Inhibition of CYP2C9 in human liver microsomes using tolbutamide as substrate incubated for 60 mins in presence of NADPH by HPLC analysis; format: ADME, Microsome
[10] = Half life in BALB/c mouse at 1 mg/kg,iv measured upto 24 hrs by LC-MS/MS analysis; format: ADME, organism-based; settings: in vivo
[11] = Microsomal stability in rat liver microsomes assessed as half life incubated upto 40 mins in presence of NADPH by LC-MS/MS analysis; format: ADME, Microsome
[12] = Microsomal stability in rat liver microsomes assessed as compound remaining incubated for 60 mins in presence of NADPH by LC-MS/MS analysis; format: ADME, Microsome; settings: read-out: Stability
[13] = MRT (0 to last) in BALB/c mouse at 10 mg/kg,po measured upto 24 hrs by LC-MS/MS analysis; format: ADME, organism-based; settings: in vivo
[14] = Inhibition of ATP production in human BXPC-3 cells incubated for 20 to 24 hrs by ATP assay kit method; format: functional, cell-based
Cytochrome P450 2D6 = Cytochrome P450 2D6 (Homo sapiens, UniProt P10635); assay: Inhibition of CYP2D6 in human liver microsomes using dextromethorphan as substrate incubated for 60 mins in presence of NADPH by HPLC analysis; format: ADME, Microsome
[15] = molecular target: Signal transducer and activator of transcription 3 (Homo sapiens, UniProt P40763); assay: Inhibition of STAT3 in human HEK293T cells assessed as inhibition of IL-6 stimulated STAT3 phosphorylation by dual-luciferase reporter assay; format: cell-based
Capan-2 = assay: Anti-proliferative activity against human Capan-2 cells assessed as cell growth inhibition incubated for 72 hrs by MTS assay; format: functional, cell-based; settings: Capan-2, 72 h
[16] = Cmax in BALB/c mouse at 1 mg/kg,iv measured upto 24 hrs by LC-MS/MS analysis; format: ADME, organism-based; set-up: dose 1 mg/kg, time < 24 hrs, route iv; settings: in vivo
[17] = Cmax in BALB/c mouse at 10 mg/kg,po measured upto 24 hrs by LC-MS/MS analysis; format: ADME, organism-based; set-up: time < 24 hrs, dose 10 mg/kg, route po; settings: in vivo
[18] = Microsomal stability in dog liver microsomes assessed as intrinsic clearance incubated upto 40 mins in presence of NADPH by LC-MS/MS analysis; format: ADME, Canis lupus familiaris, Microsome; settings: read-out: CLH
BXPC-3 [19] = assay: Anti-proliferative activity against human BXPC-3 cells assessed as cell growth inhibition incubated for 72 hrs by MTS assay; format: functional, cell-based; settings: BXPC-3, 72 h
[20] = Half life in BALB/c mouse at 10 mg/kg,po measured upto 24 hrs by LC-MS/MS analysis; format: ADME, organism-based; settings: in vivo
[21] = AUC (0-infinity) in BALB/c mouse at 10 mg/kg,po measured upto 24 hrs by LC-MS/MS analysis; format: ADME, organism-based; set-up: time < 24 hrs, dose 10 mg/kg, route po; settings: in vivo
[22] = AUC (0-24hrs) in BALB/c mouse at 1 mg/kg,iv measured upto 24 hrs by LC-MS/MS analysis; format: ADME, organism-based; set-up: time < 24 hrs, dose 1 mg/kg, route iv; settings: in vivo
[23] = Microsomal stability in dog liver microsomes assessed as compound remaining incubated for 60 mins in presence of NADPH by LC-MS/MS analysis; format: ADME, Canis lupus familiaris, Microsome; settings: read-out: Stability
[24] = Microsomal stability in human liver microsomes assessed as compound remaining incubated for 60 mins in presence of NADPH by LC-MS/MS analysis; format: ADME, Microsome; settings: read-out: Stability
[25] = Microsomal stability in rat liver microsomes assessed as intrinsic clearance incubated upto 40 mins in presence of NADPH by LC-MS/MS analysis; format: ADME, Microsome; settings: read-out: CLH
Cytochrome P450 2C19 = Cytochrome P450 2C19 (Homo sapiens, UniProt P33261); assay: Inhibition of CYP2C19 in human liver microsomes; format: ADME, Microsome
BXPC-3 [26] = assay: Antitumor activity against human BXPC-3 cells xenografted BALB/c mouse model assessed as tumor growth inhibition at 30 mg/kg,po administrated once daily for 8 weeks; format: functional; settings: BXPC-3, 1344 h, read-out: TGI
[27] = Toxicity in BALB/c mouse xenografted with human BXPC-3 cells assessed as effect on liver at 30 mg/kg,po administrated once daily for 8 weeks by H and E staining based microscopic analysis; format: organism-based; settings: in vivo, 1344 h
[28] = Toxicity in BALB/c mouse xenografted with human BXPC-3 cells assessed as effect on lung at 30 mg/kg,po administrated once daily for 8 weeks by H and E staining based microscopic analysis; format: organism-based; settings: in vivo, 1344 h
[29] = Toxicity in BALB/c mouse xenografted with human BXPC-3 cells assessed as effect on kidney at 30 mg/kg,po administrated once daily for 8 weeks by H and E staining based microscopic analysis; format: organism-based; settings: in vivo, 1344 h
[30] = Toxicity in BALB/c mouse xenografted with human BXPC-3 cells assessed as effect on heart at 30 mg/kg,po administrated once daily for 8 weeks by H and E staining based microscopic analysis; format: organism-based; settings: in vivo, 1344 h
[31] = Toxicity in BALB/c mouse xenografted with human BXPC-3 cells assessed as body weight change at 30 mg/kg,po administrated once daily for 8 weeks; format: organism-based; settings: in vivo, 1344 h
[32] = Toxicity in BALB/c mouse xenografted with human BXPC-3 cells assessed as effect on spleen at 30 mg/kg,po administrated once daily for 8 weeks by H and E staining based microscopic analysis; format: organism-based; settings: in vivo, 1344 h

Chain of Signal transducer and activator of transcription 3 (P40763 whole entry): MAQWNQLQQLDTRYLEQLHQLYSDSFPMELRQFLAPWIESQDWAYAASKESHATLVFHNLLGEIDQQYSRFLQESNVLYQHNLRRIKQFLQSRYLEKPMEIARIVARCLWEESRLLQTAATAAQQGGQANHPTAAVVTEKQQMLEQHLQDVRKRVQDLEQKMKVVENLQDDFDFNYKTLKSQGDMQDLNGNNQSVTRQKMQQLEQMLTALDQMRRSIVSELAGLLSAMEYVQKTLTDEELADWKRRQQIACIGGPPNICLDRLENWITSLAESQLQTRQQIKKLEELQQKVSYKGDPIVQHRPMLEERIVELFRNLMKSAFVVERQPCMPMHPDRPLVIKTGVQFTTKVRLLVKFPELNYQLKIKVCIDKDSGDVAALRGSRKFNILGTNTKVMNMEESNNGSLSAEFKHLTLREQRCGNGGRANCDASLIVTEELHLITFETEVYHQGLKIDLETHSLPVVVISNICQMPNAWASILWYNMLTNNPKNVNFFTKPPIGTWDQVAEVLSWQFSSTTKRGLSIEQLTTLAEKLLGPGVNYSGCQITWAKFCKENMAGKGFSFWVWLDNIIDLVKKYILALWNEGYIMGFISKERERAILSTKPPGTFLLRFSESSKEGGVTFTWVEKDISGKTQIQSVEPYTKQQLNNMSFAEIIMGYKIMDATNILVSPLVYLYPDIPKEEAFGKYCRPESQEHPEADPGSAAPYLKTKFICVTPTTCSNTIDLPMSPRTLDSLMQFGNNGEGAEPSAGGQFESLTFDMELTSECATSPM
Chain of Cytochrome P450 3A4 (P08684 whole entry): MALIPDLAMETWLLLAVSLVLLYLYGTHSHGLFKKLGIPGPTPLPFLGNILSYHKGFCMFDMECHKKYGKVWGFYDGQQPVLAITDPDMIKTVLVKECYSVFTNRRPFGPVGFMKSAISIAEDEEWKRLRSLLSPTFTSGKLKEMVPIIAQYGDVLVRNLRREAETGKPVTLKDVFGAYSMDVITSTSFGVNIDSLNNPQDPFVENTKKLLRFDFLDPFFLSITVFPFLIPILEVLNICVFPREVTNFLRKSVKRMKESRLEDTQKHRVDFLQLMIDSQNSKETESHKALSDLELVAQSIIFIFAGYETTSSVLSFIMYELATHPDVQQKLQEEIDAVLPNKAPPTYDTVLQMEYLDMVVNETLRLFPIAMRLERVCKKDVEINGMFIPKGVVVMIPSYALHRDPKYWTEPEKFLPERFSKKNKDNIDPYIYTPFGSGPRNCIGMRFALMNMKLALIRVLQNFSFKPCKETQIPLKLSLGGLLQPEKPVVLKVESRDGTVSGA
Chain of Cytochrome P450 2D6 (P10635 whole entry): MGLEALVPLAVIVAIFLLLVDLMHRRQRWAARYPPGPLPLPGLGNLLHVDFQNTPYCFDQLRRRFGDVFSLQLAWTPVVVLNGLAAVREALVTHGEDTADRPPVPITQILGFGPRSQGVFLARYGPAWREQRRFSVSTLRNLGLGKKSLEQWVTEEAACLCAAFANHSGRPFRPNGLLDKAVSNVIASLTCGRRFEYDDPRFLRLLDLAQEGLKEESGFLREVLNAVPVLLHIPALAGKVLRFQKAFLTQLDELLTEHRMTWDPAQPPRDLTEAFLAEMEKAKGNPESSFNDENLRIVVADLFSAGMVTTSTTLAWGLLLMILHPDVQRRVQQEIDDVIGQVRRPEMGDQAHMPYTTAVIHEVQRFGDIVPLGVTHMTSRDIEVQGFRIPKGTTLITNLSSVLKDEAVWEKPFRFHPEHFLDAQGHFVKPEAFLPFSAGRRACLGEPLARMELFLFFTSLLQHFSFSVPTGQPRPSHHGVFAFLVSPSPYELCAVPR
Chain of Cytochrome P450 2C9 (P11712 whole entry): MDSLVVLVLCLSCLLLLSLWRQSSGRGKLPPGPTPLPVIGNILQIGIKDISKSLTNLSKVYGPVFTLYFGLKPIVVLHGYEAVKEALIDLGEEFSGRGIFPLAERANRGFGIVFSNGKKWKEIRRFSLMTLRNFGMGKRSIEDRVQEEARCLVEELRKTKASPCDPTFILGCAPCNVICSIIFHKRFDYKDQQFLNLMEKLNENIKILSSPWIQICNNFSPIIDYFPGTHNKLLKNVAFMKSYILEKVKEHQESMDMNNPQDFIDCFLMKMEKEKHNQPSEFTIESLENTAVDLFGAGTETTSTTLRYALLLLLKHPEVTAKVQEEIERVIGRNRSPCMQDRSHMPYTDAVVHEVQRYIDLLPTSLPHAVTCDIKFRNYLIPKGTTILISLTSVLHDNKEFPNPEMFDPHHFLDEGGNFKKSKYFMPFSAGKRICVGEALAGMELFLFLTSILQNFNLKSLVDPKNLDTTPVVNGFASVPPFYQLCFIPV
Chain of Cytochrome P450 2C19 (P33261 whole entry): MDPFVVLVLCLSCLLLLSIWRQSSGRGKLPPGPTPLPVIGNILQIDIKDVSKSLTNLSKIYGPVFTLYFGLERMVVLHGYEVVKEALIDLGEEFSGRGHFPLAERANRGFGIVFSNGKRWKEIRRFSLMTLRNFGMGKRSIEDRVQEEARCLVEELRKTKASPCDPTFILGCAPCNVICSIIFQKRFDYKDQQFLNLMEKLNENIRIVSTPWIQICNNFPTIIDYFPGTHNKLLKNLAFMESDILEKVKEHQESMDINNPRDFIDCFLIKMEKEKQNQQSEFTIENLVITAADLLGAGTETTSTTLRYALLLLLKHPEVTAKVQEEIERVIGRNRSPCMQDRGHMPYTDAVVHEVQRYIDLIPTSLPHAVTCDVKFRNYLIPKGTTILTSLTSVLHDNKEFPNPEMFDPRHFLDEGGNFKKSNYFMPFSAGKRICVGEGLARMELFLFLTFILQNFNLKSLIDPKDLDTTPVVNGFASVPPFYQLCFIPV

IC50 (Cytochrome P450 3A4): > 50000 nM
half-life [1]: 1.22 h
MRTlast [2]: 15 h
Vdss [3]: 3.7352 L/kg
bioavailability [4]: 12.5%
IC50 (Cytochrome P450 1A2): > 50000 nM
AUC(0-inf) [5]: 13800 ng·h/mL
half-life [6]: 1.07 h
microsomal CLint [7]: 18.9 µL/min/mg
AUC(0-t) at 24 h [8]: 10900 ng·h/mL
CL [9]: 1.24 mL/min/kg
IC50 (Cytochrome P450 2C9): > 50000 nM
half-life [10]: 17.7 h
half-life [11]: 1.24 h
remaining at 1 h [12]: 55.4%
MRT last at 24 h [13]: 15.6 h
IC50 [14]: 2.4 nM
IC50 (Cytochrome P450 2D6): > 50000 nM
IC50 [15]: 5.9 nM
Cmax [16]: 2910 ng/mL
Cmax [17]: 669 ng/mL
microsomal CLint [18]: 21.5 µL/min/mg
IC50 (BXPC-3 [19]): 1.4 nM
half-life [20]: 13.9 h
AUC(0-inf) [21]: 12300 ng·h/mL
AUC(0-t) at 24 h [22]: 8680 ng·h/mL
remaining at 1 h [23]: 50.9%
remaining at 1 h [24]: 57.6%
microsomal CLint [25]: 18.6 µL/min/mg
IC50 (Cytochrome P450 2C19): > 50000 nM
Compound: Cn1c(C(=O)N2CCN(Cc3ccc(OCC(F)(F)F)cc3)CC2)cc2ccc(Oc3cnc(-c4nc(-c5ccc(F)cc5)no4)cn3)cc21
IC50 (Capan-2): 6.4 nM

IC50 [14]: 1960 nM
IC50 (BXPC-3 [19]): 5310 nM
Compound: CC(=O)c1cc2c(o1)C(=O)c1ccccc1C2=O [NAPABUCASIN]
inhibition in vivo at 30 mg/kg (BXPC-3 [26]): 26.1%
Activity [27]: Non-Toxic
Activity [28]: Non-Toxic
Activity [29]: Non-Toxic
IC50 (Capan-2): 1590 nM
Activity [30]: Non-Toxic
Activity [31]: Non-Toxic
Activity [32]: Non-Toxic
